Measured values taken from publication PMC9693575, “Isopropyl Amino Acid Esters Ionic Liquids as Vehicles for Non-Steroidal Anti-Inflammatory Drugs in Potential Topical Drug Delivery Systems with Antimicrobial Activity” (International Journal of Molecular Sciences, 2022).

Legend:
[1] = Thermogravimetric analysis (thermal stability); conditions: for TDTGmax, maximum decomposition temperature: DTG, air atmosphere, 10 °C min−1
Experimental: The thermal stabilities of the obtained NSAIDs isopropyl ester amino acid salts were investigated. […] The beginning of thermal degradation was evaluated based on the value of onset of the TG curve, which occurs in the first phase of the process. […]
Thermogravimetric analysis (TG)
Thermogravimetric analysis was carried out using Netzsch Proteus Thermal Analy- […]
Samples of 5–8 mg were loaded in Al2O3 […]
ment was performed in an air atmosphere (25 cm3min−1) with nitrogen flow (10 cm3min−1) […]
Differential scanning calorimetry (DSC)
Phase transformation temperatures were determined on a PerkinElmer DSC-7 (Rot-gau, Germany). The samples of 3–5 mg were loaded on the aluminum pan with a crimped lid. Measurements were carried out in a nitrogen atmosphere (20 cm3 min-1). The rate of heating/cooling was 5°C min-1. […]
tained for 30 min inside the furnace, then cooled to 0°C to condition the sample and the crucible. After that, heating was conducted to the specified temperature, followed by cool-ing. Unless otherwise stated, two complete cycles of heating and cooling were performed.
The specified maximum temperature was individual for each compound, determined from TG analysis, and it was at least 10°C lower than the onset decomposition tempera-ture. Temperatures reported from DSC data are curve peaks, the melting points being endothermic upon heating and crystallization point being exothermic upon cooling. Lead, indium, tin, and zinc were used as standards to calibrate the temperature. Indium was used for enthalpy measurement calibration. […]

[2] = tested on: Escherichia coli; assay: Disc diffusion antimicrobial susceptibility test, Escherichia coli; type: cell-based; parameters: key to Inhibition diameter: -: no growth of the organism
Experimental: (§1) The plates were incubated for 24 h at 37 °C.

[3] = tested on: Staphylococcus epidermidis; assay: Disc diffusion antimicrobial susceptibility test, Staphylococcus epidermidis; type: cell-based; parameters: key to Inhibition diameter: -: no growth of the organism; conditions: for inhibition zone (in words): S. epidermidis, tested concentrations
Experimental: as §1

[4] = tested on: Micrococcus Luteus; assay: Disc diffusion antimicrobial susceptibility test, Micrococcus luteus; type: cell-based; parameters: key to Inhibition diameter: -: no growth of the organism
[5] = solution transferred to disc 25 mg cm^−3
[6] = solution transferred to disc 50 mg cm^−3
[7] = solution transferred to disc 100 mg cm^−3
[8] = solution transferred to disc 200 mg cm^−3
[9] = solution transferred to disc 400 mg cm^−3
[10] = solution transferred to disc 600 mg cm^−3
[11] = solution transferred to disc 1000 mg cm^−3
[12] = solution transferred to disc 800 mg cm^−3

| Compound | Inhibition diameter [2, 5] | Inhibition diameter [2, 6] | Inhibition diameter [2, 7] | Inhibition diameter [2, 8] | Inhibition diameter [2, 9] | Inhibition diameter [2, 10] | Inhibition diameter [2, 11] | Inhibition diameter [3, 5] | Inhibition diameter [3, 6] | Inhibition diameter [3, 7] | Inhibition diameter [3, 8] | Inhibition diameter [3, 9] | Inhibition diameter [3, 10] | Inhibition diameter [3, 12] | Inhibition diameter [3, 11] | Inhibition diameter [4, 5] | Inhibition diameter [4, 6] | Inhibition diameter [4, 7] | Inhibition diameter [4, 8] | Inhibition diameter [4, 9] [mm] | further results |
| --- | --- | --- | --- | --- | --- | --- | --- | --- | --- | --- | --- | --- | --- | --- | --- | --- | --- | --- | --- | --- | --- |
| CC(C)Cc1ccc(C(C)C(=O)O)cc1 (racemic) [IBU, (R,S)-ibuprofen, reference compound] | - | - | - | - | - | - | - |  |  |  |  |  |  |  |  |  |  |  |  |  | TTGonset, the onset of the thermal degradation [1]: 186.2 °C; TDTGmax, maximum decomposition temperature [1]: 218.8 °C; zone of inhibition at 25000 µg/mL ([3]; Staphylococcus epidermidis, 24 h, solution transferred to disc 25 mg cm^−3, read-out: Inhibition diameter): 10.8 ± 0.3 mm; zone of inhibition at 50000 µg/mL ([3]; Staphylococcus epidermidis, 24 h, solution transferred to disc 50 mg cm^−3, read-out: Inhibition diameter): 11.5 ± 0.3 mm; zone of inhibition at 100000 µg/mL ([3]; Staphylococcus epidermidis, 24 h, solution transferred to disc 100 mg cm^−3, read-out: Inhibition diameter): 14.9 ± 0.3 mm; zone of inhibition at 200000 µg/mL ([3]; Staphylococcus epidermidis, 24 h, solution transferred to disc 200 mg cm^−3, read-out: Inhibition diameter): 15.3 ± 0.3 mm; zone of inhibition at 400000 µg/mL ([3]; Staphylococcus epidermidis, 24 h, solution transferred to disc 400 mg cm^−3, read-out: Inhibition diameter): 16.4 ± 0.2 mm; zone of inhibition at 600000 µg/mL ([3]; Staphylococcus epidermidis, 24 h, solution transferred to disc 600 mg cm^−3, read-out: Inhibition diameter): 17.6 ± 0.2 mm; zone of inhibition at 800000 µg/mL ([3]; Staphylococcus epidermidis, 24 h, solution transferred to disc 800 mg cm^−3, read-out: Inhibition diameter): 18.6 ± 0.2 mm; zone of inhibition at 25000 µg/mL ([4]; Micrococcus luteus, 24 h, solution transferred to disc 25 mg cm^−3, read-out: Inhibition diameter): 8.6 ± 0.3 mm; zone of inhibition at 50000 µg/mL ([4]; Micrococcus luteus, 24 h, solution transferred to disc 50 mg cm^−3, read-out: Inhibition diameter): 9.4 ± 0.2 mm; zone of inhibition at 100000 µg/mL ([4]; Micrococcus luteus, 24 h, solution transferred to disc 100 mg cm^−3, read-out: Inhibition diameter): 9.7 ± 0.2 mm; zone of inhibition at 200000 µg/mL ([4]; Micrococcus luteus, 24 h, solution transferred to disc 200 mg cm^−3, read-out: Inhibition diameter): 10.2 ± 0.1 mm; zone of inhibition at 400000 µg/mL ([4]; Micrococcus luteus, 24 h, solution transferred to disc 400 mg cm^−3, read-out: Inhibition diameter): 10.6 ± 0.1 mm; zone of inhibition at 600000 µg/mL ([4]; Micrococcus luteus, 24 h, solution transferred to disc 600 mg cm^−3, read-out: Inhibition diameter): 11.5 ± 0.2 mm; zone of inhibition at 800000 µg/mL ([4]; Micrococcus luteus, 24 h, solution transferred to disc 800 mg cm^−3, read-out: Inhibition diameter): 12.7 ± 0.2 mm |
| CC(C(=O)O)c1cccc(C(=O)c2ccccc2)c1.CC[C@H](C)[C@H](N)C(=O)OC(C)C [[L-IleOiPr][KETO], L-isoleucine isopropyl ester ketoprofenate] | - | - | - | - | - | - | - | - | - | - | - | 6.2 ± 0.1 mm | 7.3 ± 0.2 mm | 8.3 ± 0.1 mm | 10.4 ± 0.2 mm | - | 6.3 ± 0.2 mm | 6.6 ± 0.3 mm | 7.1 ± 0.2 mm | 7.3 ± 0.1 | Inhibition diameter [4, 10]: 8.3 ± 0.2 mm; Inhibition diameter [4, 12]: 8.4 ± 0.3 mm; Inhibition diameter [4, 11]: 9.4 ± 0.2 mm |
| COc1ccc2cc([C@H](C)C(=O)O)ccc2c1.CSCC[C@H](N)C(=O)OC(C)C [[L-MetOiPr][NAP], L-methionine isopropyl ester naproxenate] | - | - | - | 6.4 ± 0.3 mm | 7.1 ± 0.1 mm | 7.3 ± 0.2 mm | 7.7 ± 0.2 mm | - | - | - | - | - | - | - | 7.5 ± 0.3 mm | - | - | - | - | 6.4 ± 0.1 | TTGonset, the onset of the thermal degradation [1]: 149.6 °C; TDTGmax, maximum decomposition temperature [1]: 293.2 °C; Inhibition diameter [4, 10]: 7.1 ± 0.2 mm; Inhibition diameter [4, 12]: 7.5 ± 0.1 mm; Inhibition diameter [4, 11]: 7.8 ± 0.2 mm |
| CC(C(=O)O)c1cccc(C(=O)c2ccccc2)c1.CC(C)OC(=O)C(N)C(C)O (mixture of isomers) [[L-ThrOiPr][KETO], L-threonine isopropyl ester ketoprofenate] | - | - | - | - | - | - | - | - | - | - | - | - | - | - | - | - | - | - | 7.4 ± 0.3 mm | 9.6 ± 0.1 | inhibition zone (in words) [3]: no inhibition zone was observed; Inhibition diameter [4, 10]: 14.3 ± 0.2 mm; Inhibition diameter [4, 12]: 15.4 ± 0.2 mm; Inhibition diameter [4, 11]: 17.4 ± 0.1 mm |
| CC(C)OC(=O)[C@@H](N)[C@@H](C)O.COc1ccc2cc([C@H](C)C(=O)O)ccc2c1 [[L-ThrOiPr][NAP], L-threonine isopropyl ester naproxenate] | - | - | - | - | - | - | - | - | - | - | - | - | - | - | - | 6.2 ± 0.1 mm | 6.6 ± 0.1 mm | 6.9 ± 0.1 mm | 7.6 ± 0.1 mm | 8.5 ± 0.1 | TTGonset, the onset of the thermal degradation [1]: 145.8 °C; TDTGmax, maximum decomposition temperature [1]: 295.3 °C; inhibition zone (in words) [3]: no inhibition zone was observed; Inhibition diameter [4, 10]: 8.8 ± 0.2 mm; Inhibition diameter [4, 12]: 9.6 ± 0.1 mm; Inhibition diameter [4, 11]: 10.8 ± 0.5 mm |
| CC(C(=O)O)c1cccc(C(=O)c2ccccc2)c1.CSCCC(N)C(=O)OC(C)C (mixture of isomers) [[L-MetOiPr][KETO], L-methionine isopropyl ester ketoprofenate] | - | - | 7.3 ± 0.5 mm | 8.0 ± 0.6 mm | 8.9 ± 0.5 mm | 10.6 ± 0.7 mm | 12.9 ± 0.4 mm | - | - | - | - | - | - | - | 7.4 ± 0.2 mm | - | 7.2 ± 0.2 mm | 8.2 ± 0.2 mm | 8.5 ± 0.3 mm | 9.2 ± 0.1 | Inhibition diameter [4, 10]: 9.6 ± 0.2 mm; Inhibition diameter [4, 12]: 12.4 ± 0.2 mm; Inhibition diameter [4, 11]: 14.3 ± 0.2 mm |
| CC(C(=O)O)c1cccc(C(=O)c2ccccc2)c1.CC(C)OC(=O)C(N)C(C)C (mixture of isomers) [[L-ValOiPr][KETO]] | - | - | - | 6.7 ± 0.3 mm | 7.0 ± 0.2 mm | 7.6 ± 0.3 mm | 8.3 ± 0.4 mm | - | - | - | - | 6.2 ± 0.1 mm | 6.3 ± 0.1 mm | 6.3 ± 0.2 mm | 6.9 ± 0.2 mm | 6.3 ± 0.2 mm | 7.4 ± 0.1 mm | 8.5 ± 0.3 mm | 9.1 ± 0.3 mm | 10.3 ± 0.2 | Inhibition diameter [4, 10]: 11.7 ± 0.1 mm; Inhibition diameter [4, 11]: 15.1 ± 0.2 mm |
